Literature values, collected in US10555523B2, “Self indicating antimicrobial chemistry” (ECOLAB USA INC, priority 2015, dated 2020).

Test system: microorganisms

In the case of `CC(=O)OO` [Peracetic acid], the “concentration needed for biocidal activity” value is listed as “greater than 80 part per million”.
